Here are results for eight molecules from patent EP4559923A1, “ANTIHISTAMINE COMPOUND, AND PREPARATION METHOD THEREFOR AND USE THEREOF” (HC Synthetic Pharmaceutical Co., Ltd., priority 2022, dated 2024).

Data set [1] can be described thus: Accelerated stability test. The data set is classed as physicochemical. Particulars: 40°C ± 2°C, relative humidity 75% ± 5%; for remaining at 730 h / remaining at 1460 h / remaining at 2190 h / remaining at 4380 h: storage 75% relative humidity, read-out: Content.
Another data set relates to histamine-induced asthma. As to the kind of experiment: Antiasthmatic effect on histamine-induced asthma in guinea pigs (latency period). In kind it is in vivo. Conditions: X±s, n = 5; for Post-administration latency period: 1 mg/kg oral gavage, sixty minutes after administration, histamine hydrochloride spray, no asthma within 8 minutes counted as 8 minutes; for Pre-administration latency period: baseline before dosing, histamine hydrochloride spray 0.8 mg/mL for 40 seconds. Here is the method: The guinea pigs were placed in a polymethyl methacrylate bell jar and a histamine hydrochloride solution was sprayed ultrasonically (0.8 mg/mL) for 40 seconds. The time point at which the guinea pigs developed asthma was recorded. The time of convulsion and fall was taken as the latency period. Guinea pigs with a latency period exceeding 180 seconds were not selected. […] The guinea pigs were administered by oral gavage at a dose of 2 mL/kg·bw. Sixty minutes after the administration, the guinea pigs were placed in bell jars, and histamine hydrochloride solution was sprayed under the same conditions as in the previous selection. The latency period for the onset of asthma was recorded. […] The results were processed statistically.

Another data set has as its system histamine. Description: Muscle tone of isolated ileal smooth muscle of guinea pigs contracted with histamine. Particulars: Table 4, x±s, n = 8; for Antispasmodic percentage (%): relative to tone after adding histamine, 3 min; for Smooth muscle tone (g) After addition of histamine: after 0.05 mL of histamine, before compound; for Smooth muscle tone (g) Before administration: before histamine and compound. Here is the method:
(§1) The guinea pig was knocked unconscious with a wooden stick, and the abdomen was immediately dissected to separate the ileum about 15 cm in length. The contents of the intestinal segment were flushed with Tyrode's solution and placed in Tyrode's solution at a constant temperature of 37°C for later use, and oxygen was supplied simultaneously. The experimental intestinal tract (1 cm in length) was cut and placed into 20 ml of Tyrode's solution at a constant temperature of 37°C with a continuous oxygen supply. One end of the intestine was fixed on the ventilation hook and the other end was connected to the muscle tone transducer and led to the computer interface. The muscle tone value of the ileal smooth muscle was recorded with a BL system. The experiment was carried out after the intestinal segment contraction became stable.
(§2) After the ileal peristalsis curve stabilized, the tone values before adding the compound were recorded, and then 0.05 mL of histamine was added. […] The operation was repeated 8 times. The antispasmodic percentage was calculated using the following equation. Antispasmodic percentage; = (Tone value after adding histamine−Tone value after adding subject compound)/(Tone value after adding histamine) × 100% [formula]

Test in data set [2]: as above
Particulars: Table 4; 3 minutes after adding 0.05 mL compound at maximum histamine contraction; x±s, n = 8. On the procedure:
as §1, §2

For data set [3], the system named is isolated ileal smooth muscle. As to the kind of experiment: Muscle tone of isolated ileal smooth muscle of guinea pigs, compound alone. Conditions: Table 3, no histamine, X±s, n = 8; for Smooth muscle tone (g) After administration: 5 minutes after adding the drug; for Antispasmodic percentage (%): relative to tone before adding compound, 5 min; for Smooth muscle tone (g) Before administration: before adding the drug. On the procedure: as §1
After the ileum contraction curve stabilized, the tone values before adding the drug were recorded, then the drug or DMSO was added, and the average tone value of the ileum contraction curve at that point was recorded 5 minutes later. The operation was repeated 8 times. The antispasmodic percentage was calculated according to the following formula. Antispasmodic percentage =; (Tone value before adding subject compound−Tone value after adding subject compound)/(Tone value before adding subject compound) × 100% [formula]

Take `O=P(O)(O)OCOCCCCN1CCC(=C2c3ccc(Cl)cc3CCc3cccnc32)CC1` [Compound III-18]: in data set [1] (Month 0), the Content came out at 99.7%, the Description entry was “White powder” and the Related substances is given as 0.03%. In data set [1] (Month 1), the Description entry was “White powder”, the Related substances is given as 0.06% and the remaining at 730 h was 99.6%. In data set [1] (Month 2), the Description result is on record as “White powder”, the Related substances is on record as 0.12% and the remaining at 1460 h came to 99.5%. In addition, in data set [1] (Month 3), the Description result is “White powder”, the Related substances came to 0.16% and the remaining at 2190 h was 99.5%. Further, in data set [1] (Month 6), the Description entry was “White powder”, the Related substances was determined as 0.34% and the remaining at 4380 h was 99.4%. Moreover, the “Post-administration latency period” value with histamine-induced asthma amounted to 354.29 ± 50.81 s. The “Antispasmodic percentage (%)” value in the data set on histamine is reported as 65.50±19.34%. Besides, the “Smooth muscle tone (g) After administration” value in data set [2] was 1.18 ± 0.26 g. In data set [3], the “Smooth muscle tone (g) After administration” value worked out at 1.13 ± 0.21 g and the “Antispasmodic percentage (%)” value was determined as 34.30±18.66%.

Consider `O=P(O)(O)OCOCCCN1CCC(=C2c3ccc(Cl)cc3CCc3cccnc32)CC1` [Compound IV-9], for which, in data set [1] (Month 0), the Content worked out at 99.7%, the Description entry is “White powder” and the Related substances amounted to 0.03%. In addition, in data set [1] (Month 1), the Description result is reported as “White powder”, the Related substances is given as 0.04% and the remaining at 730 h is 99.7%. Besides, in data set [1] (Month 2), the Description result was “White powder”, the Related substances was 0.05% and the remaining at 1460 h was 99.7%. In data set [1] (Month 3), the Description result was “White powder”, the Related substances is 0.06% and the remaining at 2190 h turned out to be 99.7%. Besides, in data set [1] (Month 6), the Description entry is on record as “White powder”, the Related substances stood at 0.10% and the remaining at 4380 h was 99.6%. Further, the “Post-administration latency period” value with histamine-induced asthma amounted to 361.82 ± 51.36 s. Moreover, the “Antispasmodic percentage (%)” value in the data set on histamine amounted to 65.89±19.76%. In data set [2], the “Smooth muscle tone (g) After administration” value turned out to be 1.18 ± 0.29 g. In data set [3], the “Smooth muscle tone (g) After administration” value is 1.17 ± 0.25 g and the “Antispasmodic percentage (%)” value came to 32.75±19.48%.

In the case of `O=P(O)(O)OCCN1CCC(=C2c3ccc(Cl)cc3CCc3cccnc32)CC1` [Compound IV-2], in data set [1] (Month 0), the Content was found to be 99.6%, the Description result was “White powder” and the Related substances is on record as 0.03%. In data set [1] (Month 1), the Description entry is on record as “White powder”, the Related substances came to 0.05% and the remaining at 730 h came to 99.6%. Also, in data set [1] (Month 2), the Description result is on record as “White powder”, the Related substances is 0.09% and the remaining at 1460 h came out at 99.5%. Also, in data set [1] (Month 3), the Description entry is “White powder”, the Related substances worked out at 0.13% and the remaining at 2190 h stood at 99.5%. Further, in data set [1] (Month 6), the Description result is “White powder”, the Related substances is recorded as 0.26% and the remaining at 4380 h amounted to 99.4%. The “Post-administration latency period” value in the data set on histamine-induced asthma was 383.10 ± 50.33 s. Besides, the “Antispasmodic percentage (%)” value with histamine was 65.56±19.28%. In data set [2], the “Smooth muscle tone (g) After administration” value was found to be 1.18 ± 0.19 g. In data set [3], the “Smooth muscle tone (g) After administration” value came out at 1.19 ± 0.31 g and the “Antispasmodic percentage (%)” value turned out to be 33.14±18.39%.

In the case of `O=P(O)(O)OCCCCCN1CCC(=C2c3ccc(F)cc3CCc3cccnc32)CC1` [Compound III-14], in data set [1] (Month 0), the Content is reported as 99.6%, the Description entry was “White powder” and the Related substances is given as 0.03%. In data set [1] (Month 1), the Description result is reported as “White powder”, the Related substances was determined as 0.06% and the remaining at 730 h came to 99.5%. Moreover, in data set [1] (Month 2), the Description result is given as “White powder”, the Related substances stood at 0.11% and the remaining at 1460 h turned out to be 99.5%. Further, in data set [1] (Month 3), the Description entry is on record as “White powder”, the Related substances worked out at 0.15% and the remaining at 2190 h is 99.5%. Moreover, in data set [1] (Month 6), the Description entry is listed as “White powder”, the Related substances turned out to be 0.32% and the remaining at 4380 h is 99.3%. For the same molecule, in the data set on histamine-induced asthma, the “Post-administration latency period” value came out at 372.40 ± 50.33 s. For the same molecule, the “Antispasmodic percentage (%)” value in the data set on histamine stood at 66.07±19.34%. Besides, the “Smooth muscle tone (g) After administration” value in data set [2] was 1.15 ± 0.22 g. Also, in data set [3], the “Smooth muscle tone (g) After administration” value worked out at 1.18 ± 0.28 g and the “Antispasmodic percentage (%)” value is given as 31.79±17.77%.

With `O=P(O)(O)OCCCCCN1CCC(=C2c3ccc(Br)cc3CCc3cccnc32)CC1` [Compound III-15], in the data set on histamine-induced asthma, the “Post-administration latency period” value was 359.61 ± 50.22 s and the “Pre-administration latency period” value amounted to 99.11 ± 51.09 s. Also, in the data set on histamine, the “Smooth muscle tone (g) After addition of histamine” value (from here on “Smooth muscle tone … of histamine”) amounted to 3.40 ± 0.89 g, the “Smooth muscle tone (g) Before administration” value worked out at 1.80 ± 0.20 g and the “Antispasmodic percentage (%)” value amounted to 65.59±18.88%. Moreover, the “Smooth muscle tone (g) After administration” value in data set [2] is 1.17 ± 0.23 g. Moreover, in data set [3], the “Smooth muscle tone (g) After administration” value came out at 1.13 ± 0.20 g, the “Smooth muscle tone (g) Before administration” value was 1.74 ± 0.22 g and the “Antispasmodic percentage (%)” value is given as 35.05±18.37%.

As for `O=P(O)(O)OCCCN1CCC(=C2c3ccc(Br)cc3CCc3cccnc32)CC1` [Compound III-9], the “Post-administration latency period” value in the data set with histamine-induced asthma amounted to 362.84 ± 53.77 s. Besides, the “Antispasmodic percentage (%)” value with histamine turned out to be 67.33±19.34%; in data set [3] it was 30.59±20.02%. The “Smooth muscle tone (g) After administration” value in data set [2] stood at 1.14 ± 0.26 g; in data set [3], 1.18 ± 0.25 g.

For the molecule `O=P(O)(O)OCCN1CCC(=C2c3ccc(F)cc3CCc3cccnc32)CC1` [Compound III-5], in the data set with histamine-induced asthma, the “Post-administration latency period” value was found to be 371.19 ± 44.59 s and the “Pre-administration latency period” value is 100.10 ± 43.29 s. Besides, in the data set on histamine, the “Smooth muscle tone … of histamine” value worked out at 3.40 ± 0.83 g, the “Smooth muscle tone (g) Before administration” value came to 1.79 ± 0.20 g and the “Antispasmodic percentage (%)” value stood at 65.58±20.01%. In data set [2], the “Smooth muscle tone (g) After administration” value worked out at 1.17 ± 0.23 g. Besides, in data set [3], the “Smooth muscle tone (g) After administration” value came out at 1.18 ± 0.22 g, the “Smooth muscle tone (g) Before administration” value was determined as 1.73 ± 0.21 g and the “Antispasmodic percentage (%)” value was found to be 31.79±16.94%.

For the molecule `O=P(O)(O)OCOCCCN1CCC(=C2c3ccc(Cl)cc3CCc3cccnc32)CC1` [Compound III-17], in the data set on histamine-induced asthma, the “Post-administration latency period” value turned out to be 360.28 ± 51.00 s and the “Pre-administration latency period” value worked out at 96.93 ± 53.19 s. In the data set with histamine, the “Smooth muscle tone … of histamine” value was 3.41 ± 0.84 g, the “Smooth muscle tone (g) Before administration” value was found to be 1.83 ± 0.25 g and the “Antispasmodic percentage (%)” value is reported as 65.10±19.10%. Besides, in data set [2], the “Smooth muscle tone (g) After administration” value came to 1.19 ± 0.29 g. In data set [3], the “Smooth muscle tone (g) After administration” value came out at 1.14 ± 0.28 g, the “Smooth muscle tone (g) Before administration” value is 1.71 ± 0.23 g and the “Antispasmodic percentage (%)” value is on record as 33.33±19.10%.
